Test results reported in article PMC4444023 (PLoS ONE, 2015).
“And” between values parts separate entries of the source, which are not always exact repeats. Equal entries are not always repeated. “Also recorded” adds a separate entry of the source.

Experiments:
nSMase = target: nSMase; design: method as in PMID 21615386, PMID 17049336; conditions: cited from earlier work; for IC50: Enzyme source: Rat brain
human nSMase2 [1] = target: T1, human nSMase2 (Homo sapiens, UniProt Q9NY59); experiment: Fluorescence (Amplex red coupled) nSMase2 activity assay; format: biochemical; design: Full length human nSMase2 cDNA with a C-terminal Flag tag; crude cell lysate used as enzyme
T1 sequence (Q9NY59 1-655): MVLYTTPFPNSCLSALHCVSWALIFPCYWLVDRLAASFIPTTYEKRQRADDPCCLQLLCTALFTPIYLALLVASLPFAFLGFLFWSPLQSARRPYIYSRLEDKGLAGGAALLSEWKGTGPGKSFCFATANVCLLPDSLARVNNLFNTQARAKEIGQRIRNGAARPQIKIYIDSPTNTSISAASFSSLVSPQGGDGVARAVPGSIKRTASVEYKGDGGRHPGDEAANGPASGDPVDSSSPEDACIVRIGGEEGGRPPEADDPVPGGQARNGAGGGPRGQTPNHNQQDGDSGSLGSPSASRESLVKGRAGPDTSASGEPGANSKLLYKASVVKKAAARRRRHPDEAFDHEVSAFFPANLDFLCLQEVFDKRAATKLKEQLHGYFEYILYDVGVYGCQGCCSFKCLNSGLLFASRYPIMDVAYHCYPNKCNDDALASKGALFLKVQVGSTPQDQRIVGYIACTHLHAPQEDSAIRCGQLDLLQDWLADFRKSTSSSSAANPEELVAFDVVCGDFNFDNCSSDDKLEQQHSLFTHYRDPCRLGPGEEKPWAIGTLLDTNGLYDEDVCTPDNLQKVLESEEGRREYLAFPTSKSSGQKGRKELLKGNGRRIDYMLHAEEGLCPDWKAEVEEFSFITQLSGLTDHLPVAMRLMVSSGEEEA
Method: The production of the latter was coupled to a dephosphorylation reaction catalyzed by alkaline phosphatase (4 U/ml) to produce choline, followed by oxidation of choline by choline oxidase (0.1 U/ml) to produce betaine and H2O2, which in the presence of horseradish peroxidase (HRP, 1U/ml) and 50 μM Amplex red, generates the fluorescent molecule resorufin (Life Technologies). Substrate stock solution was prepared in 2% Triton X-100, vortexed and sonicated for 30 min. Reactions were carried out for 1 h at 37°C in 100 mM Tris-HCl pH 7.4, 10 mM MgCl2, 0.2% Triton X-100 and the generation of the fluorescent product was monitored by measuring relative florescence units (RFU) with excitation at 530 nm and emission at 590 nm (Fig 1). This assay was optimized for 384-well format (50 μl total volume per well) based on linearity of the enzymatic activity with respect to time, as well as substrate and enzyme concentrations. […] This fluorescence assay was used for compound screening and IC50 value determinations, based on duplicate eight-point dose response curves.

[2] = test system: rat primary hippocampal neurons; experiment: Hippocampal neuronal survival (Hoechst 33342); format: cell-based
Method: All animal procedures were approved by the Johns Hopkins University Animal Care and Use Committee. Primary hippocampal neurons were prepared from day 18 decapitated embryos of Sprague-Dawley rats following previously described methods. Cells were seeded on polyethyleneimine (PEI)-coated slides in 12-well plates and cultured between 14–21 days. […] After 18 h, cells were stained with 50 μg/ml Hoeschst 33342 for 20 min and then fixed with 4% paraformaldehyde for 30 min. The number of living and apoptotic cells was determined by fluorescence microscopy. A minimum of 500 cells were counted per treatment condition. Results were normalized to control untreated cells and were representative of at least two independent experiments conducted in triplicate. Statistical evaluation of the data was done by Student’s t-test.

human nSMase2 [3] = target: T1, human nSMase2; experiment: 14C-SM confirmatory direct activity assay; format: biochemical; design: Full length human nSMase2 cDNA with a C-terminal Flag tag; host or cells: HEK293, stably transfected; crude cell lysate used as enzyme; conditions: for human nSMase2 inhibitory activity of analog vs cambinol: SAR; for IC50: [14C]-SM direct activity assay, human recombinant enzyme
Method: This assay was dependent on the direct hydrolysis of ^14C-labeled SM (^14C N-methyl groups in the phosphorylcholine) by human nSMase2. Optimization of assay conditions was accomplished according to the methods of Barbone et al.. Briefly, bovine [N-methyl-^14C]-sphingomyelin (specific activity […], Perkin Elmer) and phosphatidylinositol (Avanti Polar Lipids) were evaporated to dryness under a stream of nitrogen and resuspended at an equimolar concentration of 0.1 mM in water with 0.5% Triton X-100 (Sigma). The solution was vortexed for 30 min and then sonicated for 30 min. Assay conditions were as follows: 50 μl total volume per reaction, consisting of 20 μM SM, reaction buffer (100 mM Tris-HCl pH 7.5, 80 mM MgCl2, 0.1% Triton X-100); 10 μl cell lysate containing recombinant human nSMase2 (0.5–1 μg protein/assay) and 5 μl of compound in reaction buffer containing 10% DMSO. After 1 h incubation at 37°C the reaction was terminated by the addition of 30 μl of water and 175 μl of chloroform/methanol (2:1, v:v), followed by vigorous vortexing. Tubes were centrifuged for 5 min at 10,000 xg at room temperature to separate the organic bottom phase containing labeled SM and the aqueous upper phase containing ^14C-labeled-phosphorylcholine. An aliquot (50 μl) of the upper phase was transferred to a vial with 10 ml of scintillant and counted for 2 min on a Beckman LS-6000IC scintillation counter. Enzyme activity was directly proportional to the disintegrations per min (dpm) resulting from the generation of ^14C-phosphorylcholine.

In the case of `COc1cc(O)c(C(=O)O)c(-c2cc(O)c(O)cc2C)c1` [Altenusin, reference compound], the IC50 (nSMase) is given as 28 µM, the MOI (nSMase) is given as “Non- competitive” and the “modulation of enzymatic activity (Fig 3C raw data)” value (human nSMase2 [1]; 100 µM) is given as 75.4 RFU and 73.8 RFU and 72.1 RFU and 74.7 RFU. For the same compound, the “inhibition of human nSMase2 activity” value (human nSMase2 [1]; 150 μM GW4869, 100 μM manumycin A, altenusin, zoledronic acid) was “possible to inhibit enzyme activity; also recorded: inhibition”.

With `C[S+](C)[O-]` [DMSO] the “human nSMase2 activity” value (human nSMase2 [1]; 0.1% DMSO) was 2703.2500 RFU and 2871.2510 RFU and 2454.0980 RFU and 2595.8260 RFU, the “human nSMase2 activity” value (human nSMase2 [1]; 1% DMSO) was 2256.2870 RFU and 2299.5150 RFU and 2360.8330 RFU and 2629.8220 RFU and the “human nSMase2 activity” value (human nSMase2 [1]; 10% DMSO) was 1706.1510 RFU and 1610.6720 RFU and 1424.4530 RFU and 1442.3390 RFU. For the same compound, the “inhibition of human nSMase2 activity” value (human nSMase2 [1]; DMSO up to 1%) was “no significant inhibition”.

In the case of `CC1CC2C(C=CC3CC(O)CC4CC(=O)C(=CC32)C(=O)O4)C1=O` (stereo not drawn) [Macquarimicin A], the IC50 (nSMase) is listed as 145 µM and the MOI (nSMase) is listed as “Non- competitive”.

For `CC[C@@H](C)/C=C(\C)C[C@@H](C)C[C@@H](C)/C=C/C=C/C=C/C(=O)N[C@H](CO)C[C@@]1(O)C(=O)C=C[C@@H]2O[C@@H]21` [Scyphostatin], the MOI (nSMase) is given as “Competitive”.

For `O=c1[nH]c(-c2ccccc2)c(Cc2c(O)ccc3ccccc23)c(=O)[nH]1` [compound 2], the “neuron survival, Mean (normalized to control untreated cells)” value ([2]; 100 ng/ml IL1β 18 h, 10 µM compound) was 79.08, the “neuron survival, Mean (normalized to control untreated cells)” value ([2]; 100 ng/ml IL1β 18 h, 25 µM compound) was 81.7 and the “neuron survival, Mean (normalized to control untreated cells)” value ([2]; 100 ng/ml TNFα 18 h, 10 µM compound) was 76.55. The “neuron survival, Mean (normalized to control untreated cells)” value ([2]; 100 ng/ml TNFα 18 h, 25 µM compound) was 81.8, the “%Inhibition” value (human nSMase2 [3]; Log [compound] -4.0) was -11.0% and -13.0% and the “%Inhibition” value (human nSMase2 [3]; Log [compound] -5.0) was -11.0% and -12.0%. For the same compound, the “%Inhibition” value (human nSMase2 [3]; Log [compound] -6.0) was -2.0% and -3.0%, the “%Inhibition” value (human nSMase2 [3]; Log [compound] -7.0) was 3.0% and 0.0% and the “%Inhibition” value (human nSMase2 [3]; Log [compound] -9.0) was 4.0%. The “%Inhibition” value (human nSMase2 [3]; Log [compound] -10.0) was -1.0% and -2.0%, the “human nSMase2 inhibitory activity of analog vs cambinol” value (human nSMase2 [3]) was “loss of activity” and the IC50 (human nSMase2 [3]) was > 100 µM.

For `O=c1nc(SCc2ccccc2)[nH]c(-c2ccccc2)c1Cc1c(O)ccc2ccccc12` [compound 3], the “human nSMase2 inhibitory activity of analog vs cambinol” value (human nSMase2 [3]) was “loss of activity” and the IC50 (human nSMase2 [3]) was > 50 µM.

With `O=c1cc(-c2ccccc2)[nH]c(=S)[nH]1` [compound 5] the IC50 (human nSMase2 [3]) was > 50 µM and the “increase in IC50 value” (human nSMase2 [3]; vs cambinol) was 10 fold.
